Reference: patent US6348309B1, “Process for inactivating viruses in blood and blood products” (priority 1989, dated 2002)
Entries after “also recorded” stand apart in the source; their conditions may differ.

Experiments:
adenovirus = test: Photodynamic treatment of adenovirus with pre-incubation in the dark, titrated on FL cells (Example 7); type: cell-based; details: TB instead of MB, same conditions
[1] = test system: Eastern equine encephalomyelitis (EEE) virus; details: cited from earlier work
[2] = 1 to 2 mg/kg of body weight; cited from earlier work

For Cc1cc2nc3ccc(N(C)C)cc3[s+]c2cc1N.[Cl-] [TB, toluidine blue], the “effect of photodynamic treatment on virus titer” value (adenovirus) is given as “not reduced”, the “inactivation of EEE virus in plasma” value [1] is given as “effectively inactivated; also recorded: failed to inactivate the virus completely” and the “side effects in therapeutic use” value [2] is given as “without any significant side effects”.
